According to US12053477B2, “Methods for treating pulmonary fibrosis” (Reviva Pharmaceuticals, Inc., priority 2017, dated 2024):

Legend:
[1] = tested on: Bleomycin (BLM) induced pulmonary fibrosis; assay: Bleomycin (BLM) induced pulmonary fibrosis rat model; format: in vivo, Sprague Dawley rats
Procedure: Study Animals: The investigation involved 34 male Sprague Dawley rats (weights: 275-300 g; ages: 8 weeks; Charles River Laboratories, Quebec, Canada) randomized for equal distribution according to their body weight into four groups.
Study Methods: On Day 0, animals in Group 1 (Sham; N=5) received one intratracheal administration of the vehicle, 0.250 mL of vehicle 0.9% saline solution (FIG. 1). Animals in Groups 2 to 4 (n=9, 10, 10, respectively) received a single intratracheal instillation of 0.250 mL (5 U/kg-3.33 mg/kg) of bleomycin sulfate (Cayman Chemicals, Ann Arbor, MI) solution. From Day 1 to 10, the vehicle was administered to Groups 1, 2, and 4. […] The vehicle administration was continued to Group 1 (Sham) and Group 2 (BLM) until Day 20. […] During the treatment period, food and water were provided ad libitum to the rats. On each day, animals were monitored for behavior, general health status, and survival. Body weight and food intake were also measured.
For bleomycin, 50 mg of drug was weighed and dissolved in 12.5 mL of sterile 0.9% Saline solution was added to obtain a solution of 4 mg/mL. The vehicle was created by dissolving 50 g of glucose in 1 L of water to result in a 5% solution.
On Day 21, animals were anesthetized and instrumented. Hemodynamic parameters (systemic arterial blood pressure, heart rate, and oxygen saturation) were recorded continuously for at least 5 minutes. At the end of the recording, a blood sample was collected. After the animal was exsanguinated, the pulmonary circulation was flushed with 0.9% NaCl, and tissues (lungs, trachea, and heart) were harvested altogether from the thoracic cavity for further analysis.
Parameters Measured on Surgery Day: Cardiac activity was recorded continuously during the surgical procedure. Cardiac activity was monitored using three electrocardiographic (ECG) contact electrodes placed in a lead-I/II configuration and connected to an IsoDam8 differential amplifier. Heart rate (HR) was recorded using duplicate systems: from the ECG records (RR-intervals) and using an N-595 pulse oximeter attached to the left front paw of the animal. The heart rate values derived from the pulse oximeter were measured in beat per minutes (bpm) using cursor readings in Clampfit 10.2.0.14CA. Blood oxygen saturation (SpO2) was measured using a pulse oximeter signal attached to the left front paw of the animal.
Systemic arterial blood pressure (SAP) was monitored continuously using an intra-arterial fluid-filled catheter connected to a pressure transducer, with diastolic and systolic pressures values measured in mm Hg. Calculation of mean SAP (mSAP) and pulse pressure (PP) used the following formulas: 1−mSAP=diastolic systemic pressure+([systolic systemic pressure−diastolic systemic pressure]/3); and 2−PP=systolic systemic pressure−diastolic systemic pressure. Pulse pressure was calculated as the difference between systolic and diastolic readings.
After being harvested, the trachea was connected to the cannula of a perfusion system. The left lung was clamped while 5 mL of cold PBS solution was injected in the trachea to perform bronchoalveolar lavage to obtain fluid (BALF) of the right lobe of the lungs and was collected for further analysis (Total cell counts and cytokines measurement). Once the BALF sample was collected, it was centrifuged at 1200 rpm for 10 minutes at 4° C. The supernatant was frozen at −80° C. until cytokines analysis. The cells were then resuspended in PBS and counted with a hemocytometer.
Organ weights were expressed as relative percentages and were calculated as follows: Relative organ weight=(organ weight×100)/body weight.
Histological Preparation and Categorization: For each rat, the left lobe of the lungs was harvested, perfused and fixed with 10% neutral buffered formalin. A transversal section of the middle left lobe was cut and forwarded in 10% NBF to the Institute for Research in Immunology and Cancer (Montreal, Quebec, Canada). […]

Human recombinant 5-HT1A = Human recombinant 5-HT1A (Homo sapiens (Human), UniProt P08908); assay: Serotonin 5HT1A radioligand binding assay
[2] = biological target: Human Cortex or Human recombinant 5-HT2A (Homo sapiens (Human), UniProt P28223); assay: Serotonin 5HT2A radioligand binding assay
Chain of Human Cortex or Human recombinant 5-HT2A (P28223 whole entry, looked up): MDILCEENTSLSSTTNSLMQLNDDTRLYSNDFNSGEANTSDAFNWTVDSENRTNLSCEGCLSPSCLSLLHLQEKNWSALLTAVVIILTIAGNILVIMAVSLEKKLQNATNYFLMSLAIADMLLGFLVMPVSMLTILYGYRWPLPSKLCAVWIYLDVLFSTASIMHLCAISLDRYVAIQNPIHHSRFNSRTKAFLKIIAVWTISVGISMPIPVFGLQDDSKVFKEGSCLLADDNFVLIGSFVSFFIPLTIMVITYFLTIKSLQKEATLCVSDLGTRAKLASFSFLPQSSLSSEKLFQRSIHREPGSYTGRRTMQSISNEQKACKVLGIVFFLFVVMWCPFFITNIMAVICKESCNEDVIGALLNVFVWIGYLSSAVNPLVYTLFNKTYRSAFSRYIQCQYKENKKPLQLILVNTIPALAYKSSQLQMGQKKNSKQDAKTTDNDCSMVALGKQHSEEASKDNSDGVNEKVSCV

Human recombinant D2S = Human recombinant D2S (Homo sapiens (Human), UniProt P14416); assay: Dopamine D2S radioligand binding assay
Chain of Human recombinant D2S (P14416 other isoform, or with tags, fused parts or gaps): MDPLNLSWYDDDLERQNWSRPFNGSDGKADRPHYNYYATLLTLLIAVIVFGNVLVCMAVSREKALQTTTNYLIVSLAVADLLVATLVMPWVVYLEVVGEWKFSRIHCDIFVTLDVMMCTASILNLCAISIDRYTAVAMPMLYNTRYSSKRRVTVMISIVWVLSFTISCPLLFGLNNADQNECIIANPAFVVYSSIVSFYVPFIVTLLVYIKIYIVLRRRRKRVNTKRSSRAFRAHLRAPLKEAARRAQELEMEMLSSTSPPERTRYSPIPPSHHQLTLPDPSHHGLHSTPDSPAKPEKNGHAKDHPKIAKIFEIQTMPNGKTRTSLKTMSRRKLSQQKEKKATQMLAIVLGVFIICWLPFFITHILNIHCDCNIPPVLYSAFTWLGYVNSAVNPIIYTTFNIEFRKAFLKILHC

[3] = RPI: Day 10 to 20, Day 21, vs BLM, P<0.01
[4] = RPI: Day 10 to 20, Day 21, vs BLM, P<0.05
[5] = RPT: Day 1 to 20, Day 21, vs BLM, P<0.001
[6] = RPT: Day 1 to 20, Day 21, vs BLM, P<0.01
[7] = RPT: Day 1 to 20, Day 21, vs BLM, P<0.05
[8] = all groups (RPT and RPI), Day 21

In the case of O=C1COc2ccc(OCCCCN3CCN(c4cccc(Cl)c4Cl)CC3)cc2N1 [Compound A, 6-(4-(4-(2,3-dichlorophenyl)piperazin-1-yl)butoxy)-2H-benzo[b][1,4]oxazin-3(4H)-one], the “survival rate at Day 10” value ([1]; Group 3, 15 mg/kg b.i.d. gavage from Day 1 (text calls it RPI; Group 3 = RPT)) is reported as 100%, the “survival rate at Day 21” value ([1]; RPI: 15 mg/kg b.i.d. gavage Day 10 to 20) is reported as 89.5% and the “BALF IL6” value ([1]; RPI: Day 10 to 20, Day 21) is reported as “numerically (RPT, RPI) reduced”. The “BALF MIP1” value ([1]; RPI: Day 10 to 20, Day 21) was “None of the treatments statistically reversed”, the BALF total protein ([1]; RPI: Day 10 to 20, Day 21) was “numerical improvement reduction” and the arterial pulse pressure ([1]; RPI: Day 10 to 20, Day 21) was “slightly restored”. The blood oxygen saturation ([1]; RPI: Day 10 to 20, Day 21) was “improved”, the cardiac output ([1]; RPI: Day 10 to 20, Day 21) was “slightly restored” and the lung weight ([1]; RPI: Day 10 to 20, Day 21) was “decreased”. For the same compound, the “BALF IP10” value [1, 3] was “significant reductions”, the “BALF RANTES” value [1, 3] was “significantly reduced” and the lung hydroxyproline concentration [1, 3] was “significant diminution”. The “BALF MCP1” value [1, 4] was “significant decrease”, the “BALF total cell count” value [1, 4] was “significantly reduced” and the blood lactate levels [1, 4] was “diminution”. For the same compound, the respiratory resistance ([1]; RPI: Day 10 to 20, Day 21, vs BLM, P=0.10) was “showed improvement”, the “survival rate at Day 21” value ([1]; RPT: 15 mg/kg b.i.d. gavage Day 1 to 20) was 90% and the “BALF IL6” value ([1]; RPT: Day 1 to 20, Day 21) was “numerically (RPT, RPI) reduced”. For the same compound, the “BALF MCP1” value ([1]; RPT: Day 1 to 20, Day 21) was “reductions”, the “BALF MIP1” value ([1]; RPT: Day 1 to 20, Day 21) was “slightly reduced” and the “Ashcroft Score (H&E staining), lung parenchymal fibrotic changes” value [1, 5] was “significant reduction”. The “percentage of collagen disposition in the lung (Masson's trichrome staining)” value [1, 5] was “significantly reduced”, the “BALF IP10” value [1, 6] was “significant reductions” and the “BALF RANTES” value [1, 6] was “significantly reduced”. The blood lactate levels [1, 6] was “diminution”, the body weight [1, 6] was “significantly alleviated BLM-induced weight loss” and the cardiac output [1, 6] was “restored cardiac output”. The “BALF total cell count” value [1, 7] was “reversal”, the BALF total protein [1, 7] was “reversal” and the arterial pulse pressure [1, 7] was “improved arterial pulse pressure”. For the same compound, the blood oxygen saturation [1, 7] was “normalization”, the lung hydroxyproline concentration [1, 7] was “significant diminution” and the lung weight [1, 7] was “significantly lower”. For the same compound, the respiratory resistance [1, 7] was “significant reduction”, the body weight ([1]; administered from Day 10 (RPI; printed RPT), Day 21, vs BLM) was “slightly increased body weight” and the heart rate [1, 8] was “relatively similar in all groups”. For the same compound, the systemic arterial pressure [1, 8] was “no differences were noted among the groups”.

Work on “6-(4-(4-(2-methoxyphenyl)piperazin-1-yl)butoxy)-2H-benzo[b][1,4]oxazin-3(-4H)-one [Compound B]” yielded a Ki (Human recombinant 5-HT1A) of 0.65 nM, a Ki [2] of 118 nM and a Ki (Human recombinant D2S) of 0.3 nM.
